In one assay the target is Carbonic anhydrase 1 (Homo sapiens, UniProt P00915).
For the next assay, the target named is T1, Carbonic anhydrase 4 (Bos taurus, UniProt Q95323).
T1 sequence (Q95323 whole entry): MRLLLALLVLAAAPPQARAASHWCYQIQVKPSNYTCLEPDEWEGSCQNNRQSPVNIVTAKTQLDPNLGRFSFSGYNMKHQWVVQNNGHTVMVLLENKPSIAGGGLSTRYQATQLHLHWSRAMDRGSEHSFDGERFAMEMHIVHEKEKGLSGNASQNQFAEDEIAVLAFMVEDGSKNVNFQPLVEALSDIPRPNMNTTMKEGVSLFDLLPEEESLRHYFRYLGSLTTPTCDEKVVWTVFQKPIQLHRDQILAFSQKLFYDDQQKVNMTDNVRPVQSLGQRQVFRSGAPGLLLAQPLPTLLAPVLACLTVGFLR

A further assay addresses Carbonic anhydrase 2 (Homo sapiens, UniProt P00918).

By Ki is commonly meant the dissociation constant of the complex between target and ligand, obtained from inhibition or displacement. Lower therefore signals a stronger hold on the target.

Sequence of Carbonic anhydrase 1 (P00915 whole entry): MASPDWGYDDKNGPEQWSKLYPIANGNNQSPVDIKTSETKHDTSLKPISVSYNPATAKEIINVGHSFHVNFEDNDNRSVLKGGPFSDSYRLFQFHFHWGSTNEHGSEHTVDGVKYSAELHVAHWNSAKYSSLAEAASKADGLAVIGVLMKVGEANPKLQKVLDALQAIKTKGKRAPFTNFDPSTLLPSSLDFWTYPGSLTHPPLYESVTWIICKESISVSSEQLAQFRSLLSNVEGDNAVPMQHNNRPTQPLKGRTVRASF
Description for Carbonic anhydrase 1: Binding affinity against human carbonic anhydrase I (hCA I)
Description for Carbonic anhydrase 2: Binding affinity against human carbonic anhydrase II (hCA -II)
Description for Carbonic anhydrase 4: Compound was evaluated for binding affinity against bovine carbonic anhydrase IV (bCA IV)

As to `NS(=O)(=O)c1cc(C(=O)N[C@H](C(=O)O)c2ccccc2)ccc1Cl`, the inhibition constant (Ki) at Carbonic anhydrase 1 amounted to 105 nM; on Carbonic anhydrase 4 it was 240 nM; at Carbonic anhydrase 2, 160 nM.
On the same counts, the results for `NS(=O)(=O)c1ccc(NC(=O)c2ccc(Cl)c(S(N)(=O)=O)c2)cc1` are 24 nM, 66 nM and 30 nM.
Take `NC(=O)C[C@H](NC(=O)c1ccc(Cl)c(S(N)(=O)=O)c1)C(=O)O`: the inhibitory constant (Ki) on Carbonic anhydrase 1 came out at 240 nM; on Carbonic anhydrase 4 it was 330 nM; at Carbonic anhydrase 2 it was 275 nM.
On the same counts, the results for `C[C@H](NC(=O)c1ccc(S(N)(=O)=O)cc1)C(=O)N[C@@H](Cc1ccccc1)C(=O)O` are 320 nM, 24 nM and 12 nM.
Taken in the same sequence, the figures for `NS(=O)(=O)c1cc(C(=O)NCC(=O)O)ccc1Cl` were 210 nM, 600 nM and 450 nM.
On the same counts, the results for `CC(C)C[C@H](NC(=O)c1ccc(Cl)c(S(N)(=O)=O)c1)C(=O)NCC(=O)O` are 39 nM, 80 nM and 51 nM.
As for `NC(=O)CC[C@H](NC(=O)c1ccc(S(N)(=O)=O)cc1)C(=O)O`, the Ki amounted to 425 nM on Carbonic anhydrase 1, 160 nM on Carbonic anhydrase 4 and 75 nM at Carbonic anhydrase 2.
Taken in the same sequence, the figures for `NS(=O)(=O)c1cc(C(=O)N[C@@H](Cc2ccccc2)C(=O)O)ccc1Cl` were 135 nM, 340 nM and 250 nM.
With `NS(=O)(=O)c1cc(C(=O)NCCC(=O)N[C@@H](Cc2cnc[nH]2)C(=O)O)ccc1Cl`, the Ki came out at 30 nM at Carbonic anhydrase 1, 50 nM at Carbonic anhydrase 4 and 36 nM at Carbonic anhydrase 2.
Taken in the same sequence, the figures for `NS(=O)(=O)c1ccc(C(=O)N[C@@H](Cc2cnc[nH]2)C(=O)O)cc1` were 270 nM, 125 nM and 40 nM.
On the same counts, the results for `CSCC[C@H](NC(=O)c1ccc(S(N)(=O)=O)cc1)C(=O)O` are 400 nM, 150 nM and 66 nM.
Taken in the same sequence, the figures for `CC[C@H](C)[C@H](NC(=O)c1ccc(Cl)c(S(N)(=O)=O)c1)C(=O)O` were 150 nM, 360 nM and 280 nM.
As to `NS(=O)(=O)c1ccc(C(=O)N[C@@H](Cc2ccc(O)cc2)C(=O)O)cc1`, the results for the Ki at Carbonic anhydrase 1, on Carbonic anhydrase 4 and on Carbonic anhydrase 2 were 535 nM, 120 nM and 45 nM, respectively.
Taken in the same sequence, the figures for `NS(=O)(=O)c1ccc(C(=O)NCCCC(=O)O)cc1` were 415 nM, 120 nM and 73 nM.
Taken in the same sequence, the figures for `NS(=O)(=O)c1ccc(C(=O)NCC(=O)NCC(=O)O)cc1` were 350 nM, 50 nM and 42 nM.
For `NS(=O)(=O)c1cc(C(=O)N[C@H](C(=O)O)C(O)c2ccccc2)ccc1Cl` (stereo partly specified), the Ki came out at 37 nM at Carbonic anhydrase 1, 98 nM on Carbonic anhydrase 4 and 62 nM at Carbonic anhydrase 2.
On the same counts, the results for `NS(=O)(=O)c1ccc(C(=O)Nc2nnc(S(N)(=O)=O)s2)cc1` are 35 nM, 15 nM and 3 nM.
On the same counts, the results for `NS(=O)(=O)c1cc(C(=O)NCCC(=O)O)ccc1Cl` are 205 nM, 610 nM and 450 nM.
Taken in the same sequence, the figures for `NS(=O)(=O)c1cc(C(=O)N[C@@H](CCC(=O)O)C(=O)O)ccc1Cl` were 305 nM, 400 nM and 340 nM.
Regarding `CC(C)C[C@H](NC(=O)c1ccc(S(N)(=O)=O)cc1)C(=O)O`, the Ki was 405 nM at Carbonic anhydrase 1, 90 nM at Carbonic anhydrase 4 and 53 nM on Carbonic anhydrase 2.
Taken in the same sequence, the figures for `NS(=O)(=O)c1ccc(C(=O)NC(C(=O)O)c2ccccc2)cc1` (stereo unspecified) were 250 nM, 75 nM and 36 nM.
Taken in the same sequence, the figures for `NS(=O)(=O)c1ccc(C(=O)NC(Cc2ccc(O)c(O)c2)C(=O)O)cc1` (stereo unspecified) were 520 nM, 105 nM and 43 nM.
Taken in the same sequence, the figures for `NS(=O)(=O)c1cc(C(=O)N[C@@H](Cc2c[nH]cn2)C(=O)NCC(=O)O)ccc1Cl` were 41 nM, 73 nM and 50 nM.
In the case of `NC(=O)CC[C@H](NC(=O)c1ccc(Cl)c(S(N)(=O)=O)c1)C(=O)O`, the Ki at Carbonic anhydrase 1 was determined as 250 nM; at Carbonic anhydrase 4, 410 nM; at Carbonic anhydrase 2, 305 nM.
On the same counts, the results for `NS(=O)(=O)c1ccc(CNC(=O)c2ccc(Cl)c(S(N)(=O)=O)c2)cc1` are 24 nM, 61 nM and 28 nM.
In the case of `C[C@H](NC(=O)c1ccc(S(N)(=O)=O)cc1)C(=O)O`, the inhibitory constant (Ki) on Carbonic anhydrase 1 is 425 nM; on Carbonic anhydrase 4, 75 nM; at Carbonic anhydrase 2 it was 79 nM.
Taken in the same sequence, the figures for `NS(=O)(=O)c1ccc(C(=O)N[C@@H](CS)C(=O)O)cc1` were 450 nM, 230 nM and 110 nM.
Taken in the same sequence, the figures for `NS(=O)(=O)c1ccc(C(=O)NCCC(=O)N[C@@H](Cc2c[nH]cn2)C(=O)O)cc1` were 270 nM, 21 nM and 16 nM.
On the same counts, the results for `NS(=O)(=O)c1cc(C(=O)N[C@@H](CC(=O)O)C(=O)O)ccc1Cl` are 285 nM, 355 nM and 300 nM.
In the case of `NS(=O)(=O)c1ccc(C(=O)N[C@@H](CCC(=O)O)C(=O)O)cc1`, the Ki on Carbonic anhydrase 1 is 430 nM; at Carbonic anhydrase 4, 160 nM; at Carbonic anhydrase 2, 74 nM.
As for `NS(=O)(=O)c1ccc(C(=O)N[C@@H](CC(=O)O)C(=O)O)cc1`, the Ki was found to be 425 nM on Carbonic anhydrase 1, 150 nM on Carbonic anhydrase 4 and 73 nM on Carbonic anhydrase 2.
On the same counts, the results for `C[C@@H](O)[C@H](NC(=O)c1ccc(Cl)c(S(N)(=O)=O)c1)C(=O)O` are 320 nM, 735 nM and 520 nM.
On the same counts, the results for `NC(=O)C[C@H](NC(=O)c1ccc(S(N)(=O)=O)cc1)C(=O)O` are 410 nM, 155 nM and 72 nM.
On to `CSCC[C@H](NC(=O)c1ccc(Cl)c(S(N)(=O)=O)c1)C(=O)O`, for which the Ki worked out at 240 nM at Carbonic anhydrase 1, 650 nM at Carbonic anhydrase 4 and 410 nM on Carbonic anhydrase 2.
In the case of `NS(=O)(=O)c1cc(C(=O)N[C@@H](CO)C(=O)O)ccc1Cl`, the Ki on Carbonic anhydrase 1 was found to be 170 nM; on Carbonic anhydrase 4, 395 nM; on Carbonic anhydrase 2, 290 nM.
Taken in the same sequence, the figures for `NS(=O)(=O)c1cc(C(=O)NCCCC(=O)O)ccc1Cl` were 200 nM, 540 nM and 400 nM.
Take `NS(=O)(=O)c1cc(C(=O)NCC(=O)NCC(=O)O)ccc1Cl`: the Ki was 69 nM on Carbonic anhydrase 1, 170 nM on Carbonic anhydrase 4 and 85 nM at Carbonic anhydrase 2.
Taken in the same sequence, the figures for `NS(=O)(=O)c1cc(C(=O)NC(Cc2ccc(O)c(O)c2)C(=O)O)ccc1Cl` (stereo unspecified) were 100 nM, 330 nM and 240 nM.
On the same counts, the results for `NS(=O)(=O)c1ccc(CNC(=O)c2ccc(S(N)(=O)=O)cc2)cc1` are 40 nM, 16 nM and 7 nM.
Taken in the same sequence, the figures for `NS(=O)(=O)c1cc(C(=O)N[C@@H](CS)C(=O)O)ccc1Cl` were 300 nM, 720 nM and 490 nM.
On to `CC(C)[C@H](NC(=O)c1ccc(Cl)c(S(N)(=O)=O)c1)C(=O)O`, for which the Ki was 130 nM at Carbonic anhydrase 1, 360 nM on Carbonic anhydrase 4 and 330 nM at Carbonic anhydrase 2.
As for `CC(C)[C@H](NC(=O)c1ccc(S(N)(=O)=O)cc1)C(=O)O`, the Ki on Carbonic anhydrase 1 is 420 nM; on Carbonic anhydrase 4, 150 nM; on Carbonic anhydrase 2, 74 nM.
On the same counts, the results for `NS(=O)(=O)c1ccc(C(=O)N[C@H](C(=O)O)C(O)c2ccccc2)cc1` (stereo partly specified) are 54 nM, 62 nM and 21 nM.
On the same counts, the results for `C[C@H](NC(=O)c1ccc(Cl)c(S(N)(=O)=O)c1)C(=O)O` are 175 nM, 475 nM and 420 nM.
On the same counts, the results for `CC(C)C[C@H](NC(=O)c1ccc(Cl)c(S(N)(=O)=O)c1)C(=O)O` are 125 nM, 330 nM and 305 nM.
As to `NS(=O)(=O)c1ccc(C(=O)N[C@@H](Cc2c[nH]cn2)C(=O)NCC(=O)O)cc1`, the Ki at Carbonic anhydrase 1 came to 380 nM; on Carbonic anhydrase 4 it was 19 nM; at Carbonic anhydrase 2 it was 10 nM.
On to `C[C@H](NC(=O)c1ccc(Cl)c(S(N)(=O)=O)c1)C(=O)N[C@@H](Cc1ccccc1)C(=O)O`, for which the inhibitory constant (Ki) came to 36 nM on Carbonic anhydrase 1, 72 nM on Carbonic anhydrase 4 and 44 nM on Carbonic anhydrase 2.
On the same counts, the results for `NS(=O)(=O)c1cc(C(=O)N[C@@H](Cc2c[nH]cn2)C(=O)N[C@@H](Cc2ccccc2)C(=O)O)ccc1Cl` are 27 nM, 45 nM and 38 nM.
Taken in the same sequence, the figures for `NS(=O)(=O)c1ccc(C(=O)N[C@@H](CO)C(=O)O)cc1` were 440 nM, 325 nM and 120 nM.
Taken in the same sequence, the figures for `NS(=O)(=O)c1cc(C(=O)Nc2nnc(S)s2)ccc1Cl` were 15 nM, 21 nM and 11 nM.
For `NS(=O)(=O)c1ccc(CCNC(=O)c2ccc(Cl)c(S(N)(=O)=O)c2)cc1`, the Ki on Carbonic anhydrase 1 is 21 nM; at Carbonic anhydrase 4 it was 63 nM; at Carbonic anhydrase 2, 26 nM.
For `NS(=O)(=O)c1ccc(C(=O)N[C@@H](Cc2ccccc2)C(=O)O)cc1`, the inhibition constant (Ki) on Carbonic anhydrase 1 turned out to be 560 nM; on Carbonic anhydrase 4 it was 130 nM; on Carbonic anhydrase 2, 52 nM.

Source of the values: ChEMBL document CHEMBL1134130, “Carbonic anhydrase inhibitors: 4-sulfamoyl-benzenecarboxamides and 4-chloro-3-sulfamoyl-benzenecarboxamides with strong topical antiglaucoma properties” (Bioorg Med Chem Lett, 2001).
